“And” between values parts separate entries of the source, which are not always exact repeats. Identical values can stand only once. “Also recorded” adds a separate entry of the source.
Key:
[1] = test system: postmenopausal women having insomnia; test: Self-assessment of insomnia with Athens Insomnia Scale (AIS) before and after taking anordrin; format: in vivo, human
Protocol: Insomnia is usually measured using sleep disorder questionnaire (SDQ) such as Pittsburgh sleep quality index (PSQI), Epworth Sleeping Scale or the Athens Insomnia Scale (AIS), or using sleep quality monitor to count sleep dysfunction rating scale (SDRS). AIS is the one of popularly used SEQ. It is measured by assessing eight factors amongst which first five factors are related to nocturnal sleep and last three factors are related to daytime dysfunction. These are rated on a 0-3 scale and the sleep is finally evaluated from the cumulative score of all factors and reported as an individual's sleep outcome. Over the period of time, AIS is considered to be an effective tool in sleep analysis, and it is validated in various countries by testing it on local patients. A cut-off score of at least 6 on the AIS is used to establish the diagnosis of insomnia. See Soldatos C R, Dikeos D G, Paparrigopoulos T J (2002). “The diagnostic validity of the Athens Insomnia Scale”. J Psychosom Res. 55 (3): 263-7.
Individuals who have taken anordrin (less than 1 mg) were self-assessed for the presence and the extent of insomnia before and after they took anordrin. Specifically, thirteen postmenopausal women took anordrin for about two weeks to a few months. Their sleep quality were evaluated with Athens Insomnia Scale (AIS).

[2] = test system: rat primary neuronal cells; test: ATP level of neuronal cells treated with anordrin (ATP assay kit); format: cell-based; conditions: 10 nM anordrin, 24 hours, vs vehicle; FIG. 5
Protocol: See Chikahisa et al., Front Neurol. 2011; 2: 87.
Materials and equipment include cell culture medium, FBS and Charcoal stripped FBS, ATP assay kit (Thermofisher) and rat primary neuronal cells (Wuhan servisebio).
Primary neuronal cells (2×10^6) were grew in medium containing 10% FBS in 6 well plates for 24 hours. Then the medium was replaced with phenol red free medium contain 5% Charcoal stripped FBS for 24 hours. 10 nM anordrin or vechile were added in medium for 24 hours, and then cells were harvested. The fluorescence density of ATP was assayed using ATP assay kit following manufacture's instruction.

[3] = test system: postmenopausal women with chronic insomnia; test: Phase II clinical trial of α-anordrin enteric-coated tablets, Athens Insomnia Scale (AIS) index, preliminary results; format: in vivo, human
Protocol: This Phase II clinical trial uses a randomized, double-blind, parallel-controlled design and is conducted in three clinical trial centers. A total of three drug groups are pre-set which are a) the 0.05 mg/day dosing group, b) the 0.1 mg/day dosing group, and c) the 0.15 mg/day dosing group as well as the placebo group. The drug intervention period is 8 weeks, and the drug intervention is followed up for 4 weeks. Primary efficacy endpoint includes vaginal detachment cell maturity index and dryness in postmenopausal women. Secondary efficacy endpoint includes quality in postmenopausal women, vaginal microecological index, vaginal pH in postmenopausal women, as well as the safety endpoint. The effectiveness and safety of different doses of α-anordrin tablets are preliminarily evaluated.
Group 1 (0.05 mg dose group): daily oral administration of one 0.05 mg α-anordrin enteric-coated tablet. Group 2 (0.1 mg dose group): daily oral administration of one 0.1 mg α-anordrin enteric-coated tablet. Group 3 (0.15 mg dose group): daily oral administration of one 0.15 mg α-anordrin enteric-coated tablet. Group 4: placebo group. […]

Question: Which results are given for `C#C[C@@]1(OC(=O)CC)C[C@@H]2CC[C@@H]3[C@H](CC[C@@]4(C)[C@H]3CC[C@]4(C#C)OC(=O)CC)[C@@]2(C)C1` [anordrin, 2α, 17α-diethynyl-A-nor-5α-androstane-2β,17β-diol dipropionate]?
Answer: decrease of the average number of AIS ([1]; after vs before treatment, thirteen postmenopausal women): 63%; postmenopausal women having insomnia that exhibited a significant improvement in sleeping ([1]; anordrin at various dosages, Example 1): 100%; numbers of AIS for each patient after treatment (in words) ([1]; thirteen postmenopausal women, FIG. 3 and Table 1): significantly decreased; Average # of AIS after treatment ([1]; thirteen postmenopausal women, average before treatment 17.4, STDEV 1.2, p value <0.0001): 6.3; ATP level of neuronal cells [2]: significantly increased; also recorded: induces ATP surge; AIS number (after treatment) ([3]; one patient per row, 0.05 mg/day oral, before treatment 12-19, preliminary results): 4 and 5 (2×); sleeping quality after treatment (in words) ([3]; three patients, 0.05 mg/day): significantly improved sleeping quality

From patent publication US20240245707A1, “COMPOSITIONS FOR TREATING INSOMNIA AND USES THEREOF” (Zhejiang Jiachi Development Pharmaceuticals LTD., priority 2021, published 2024)
